# Test results published in patent US20190115105A1, “TANDEM DUPLICATOR PHENOTYPE (TDP) AS A DISTINCT GENOMIC CONFIGURATION IN CANCER AND USE THEREOF” (The Jackson Laboratory, priority 2016, published 2019).
# Read-outs that look alike come from different tables or passages of the source.
# Assays:
# HCC2218 = conditions: HCC2218, ERBB2+, non-TDP, TDP Score −0.849; GDSC data base; cited from earlier work
# HCC1599 [1] = conditions: HCC1599, TNBC, non-TDP, TDP Score −0.447; GDSC data base; cited from earlier work
# HCC1187 [2] = conditions: HCC1187, TNBC, TDP, TDP Score 0.152; GDSC data base; cited from earlier work
# HCC2157 = conditions: HCC2157, TNBC, TDP, TDP Score 0.076; GDSC data base; cited from earlier work
# HCC38 [3] = conditions: HCC38, TNBC, TDP, TDP Score 0.367; GDSC data base; cited from earlier work
# Hs578T = experiment: Cell viability IC50 (WST-8), Hs578T; format: cell-based, human; conditions: TDP Score −0.54, 72 hours
# Source text: (§1) All of the cell lines were purchased from the American Type Culture Collection (ATCC). They were authenticated by Short Tandem Repeat (STR) DNA profiling and regularly tested for Mycoplasma contamination using the MycoAlert PLUS Mycoplasma Detection Kit (Lonza). MB436, HCC38, HCC1187, HCC1395, MDA-MB231, HCC1937, HCC1599, HCC1143, HCC70, DU4475, MDA-MB157, HCC1806 were maintained in RPMI with 10% fetal bovine serum (FBS). BT549 was maintained in DMEM with 10% v/v FBS, and Hs578T in DMEM with 10% FBS and 0.01 mg/ml bovine insulin. IC50 value determinations were obtained by plating target cells in 96 well plates at a density of 1-5×10^3 cells per well. After twenty-four hours, cisplatin (Santa Cruz Biotechnology, Inc.) or carboplatin (Selleck Chemicals) were added to the culture medium in half-log serial dilutions in the range of 3.3 nM to 100 μM, in triplicate wells. Cells were incubated for 72 hours before assessing cell viability using the WST-8 assay (Dojindo Molecular Technologies, Inc.). Absorbance values were normalized to control wells (medium only) and IC50 values were calculated using the IC50R package. Two independent replicate experiments were carried out for each cell line and each treatment and the average IC50 value from the two experiments was used for the analysis.
# MB231 [4] = experiment: Cell viability IC50 (WST-8), MB231; format: cell-based, human; conditions: MB231, TDP Score −0.306, 72 hours
# Source text: as §1
# MB157 = experiment: Cell viability IC50 (WST-8), MB157; format: cell-based, human; conditions: MB157, TDP Score −0.39, 72 hours
# Source text: as §1
# HCC1806 = experiment: Cell viability IC50 (WST-8), HCC1806; format: cell-based, human; conditions: HCC1806, TDP Score 0.08, 72 hours
# Source text: as §1
# T47D = conditions: ER/PR+, non-TDP, TDP Score −0.269, GDSC data base; cited from earlier work
# HCC1954 = conditions: HCC1954, ERBB2+, non-TDP, TDP Score −0.434; GDSC data base; cited from earlier work
# HCC1599 [5] = experiment: Cell viability IC50 (WST-8), HCC1599; format: cell-based, human; conditions: HCC1599, TDP Score −0.447, 72 hours
# Source text: as §1
# BT549 = experiment: Cell viability IC50 (WST-8), BT549; format: cell-based, human; conditions: BT549, TDP Score −0.3, 72 hours
# Source text: as §1
# MB436 = experiment: Cell viability IC50 (WST-8), MB436; format: cell-based, human; conditions: MB436, TDP Score 0.469, 72 hours
# Source text: as §1
# HCC70 = experiment: Cell viability IC50 (WST-8), HCC70; format: cell-based, human; conditions: HCC70, TDP Score −0.3, 72 hours
# Source text: as §1
# HCC1937 [6] = experiment: Cell viability IC50 (WST-8), HCC1937; format: cell-based, human; conditions: HCC1937, TDP Score −0.17, 72 hours
# Source text: as §1
# [7] = test system: TNBC patient derived xenograft (PDX) models; experiment: In vivo response in patient derived xenograft (PDX) models of TNBC; design: species or system mice; conditions: for association of the TDP with sensitivity in PDX models: same eight TNBC PDX models, data not shown
# Source text: This hypothesis was explored further by testing in vivo response to cisplatin treatment in eight independent patient derived xenograft (PDX) models of TNBC. […] Thus in both established cell lines and in in vivo patient derived xenografts, TDP status is strongly associated with cisplatin sensitivity.
# TNBC patient-derived xenograft models were established at The Jackson Laboratory campus in Sacramento (JAX-West) and tested for cisplatin sensitivity as previously published. All animal procedures were performed under IACUC protocol #12027. Briefly, patient tumor material acquired from biopsy or surgical resection was implanted subcutaneously into the flank of NOD-scid IL2r gamma-chain null female mice (8-10 week-old). Models were considered “established” when log-phase growth in a second passage was evident. Individual tumor-bearing mice were randomized into treatments cohorts of at least six animals each on an accrual basis when tumors reached a volume of 150 mm^3 (day 0), at which point each tumor model was assessed for its response to cisplatin treatment, administrated at a dose of 2 mg/kg body weight and following a three-week regimen consisting of one IV injection per week. Changes in tumor volumes were measured twice a week for four full weeks from the beginning of the treatment or until tumor volumes reached the 1500 mm^3 endpoint. Treatment outcome was evaluated in terms of total response (percentage of tumor shrinkage/growth at day 20 relative to day 0). The […] TNBC PDX models that were available as part of The Jackson Laboratory inventory of TNBC PDX Live™ tumor-bearing mice were analyzed. In combination with a high number of replicates per model (6-10 animals per treatment arm), enough power to observe the statistically significant effect of the TDP configuration on cisplatin response was obtained.
# HCC1937 [8] = conditions: HCC1937, TNBC, non-TDP, TDP Score −0.17; GDSC data base; cited from earlier work
# HCC38 [9] = experiment: Cell viability IC50 (WST-8), HCC38; format: cell-based, human; conditions: HCC38, TDP Score 0.367, 72 hours
# Source text: as §1
# DU4475 = experiment: Cell viability IC50 (WST-8), DU4475; format: cell-based, human; conditions: DU4475, TDP Score −0.36, 72 hours
# Source text: as §1
# HCC1143 = experiment: Cell viability IC50 (WST-8), HCC1143; format: cell-based, human; conditions: HCC1143, TDP Score −0.424, 72 hours
# Source text: as §1
# HCC1187 [10] = experiment: Cell viability IC50 (WST-8), HCC1187; format: cell-based, human; conditions: HCC1187, TDP Score 0.152, 72 hours
# Source text: as §1
# HCC1395 [11] = experiment: Cell viability IC50 (WST-8), HCC1395; format: cell-based, human; conditions: HCC1395, TDP Score 0.118, 72 hours
# Source text: as §1
# HCC1395 [12] = conditions: HCC1395, TNBC, TDP, TDP Score 0.118; GDSC data base; cited from earlier work
# MB231 [13] = conditions: MB231, TNBC, non-TDP, TDP Score −0.306; GDSC data base; cited from earlier work
# MCF-7 = conditions: MCF-7, ER/PR+, TDP, TDP Score 0.385; GDSC data base; cited from earlier work
smiles,measurement,setting,value
Cc1cc(N2CCOCC2)cc2[nH]c(-c3c(NC[C@@H](O)c4cccc(Cl)c4)cc[nH]c3=O)nc12 [BMS-536924],IC50 Ln (μM),HCC2218,6.22 Ln (μM)
same,IC50 Ln (μM),HCC1599 [1],5.27 Ln (μM)
same,IC50 Ln (μM),HCC1187 [2],2.81 Ln (μM)
same,IC50 Ln (μM),HCC2157,3.64 Ln (μM)
"N.N.[Cl][Pt][Cl] [Cisplatin, cisplatin]",IC50 Ln (μM),HCC38 [3],5.07 Ln (μM)
same,IC50 Ln (μM),Hs578T,3.62 Ln (μM)
same,IC50 Ln (μM),HCC2218,5.99 Ln (μM)
same,IC50 Ln (μM),MB231 [4],3.52 Ln (μM)
same,IC50 Ln (μM),MB157,2.62 Ln (μM)
same,IC50 Ln (μM),HCC1806,2.76 Ln (μM)
same,IC50 Ln (μM),T47D,4.86 Ln (μM)
same,IC50 Ln (μM),HCC1954,6.94 Ln (μM)
same,IC50 Ln (μM),HCC1187 [2],4.76 Ln (μM)
same,IC50 Ln (μM),HCC1599 [5],2.65 Ln (μM)
same,IC50 Ln (μM),BT549,2.28 Ln (μM)
same,IC50 Ln (μM),MB436,1.17 Ln (μM)
same,IC50 Ln (μM),HCC70,2.75 Ln (μM)
same,IC50 Ln (μM),HCC1937 [6],3.22 Ln (μM)
same,tumor growth compared to the vehicle arm,"[7]; all five TDP PDX models, three-week regimen, 2 mg/kg IV weekly",significant reduction in tumor growth
same,tumor shrinkage of individual tumors (partial response),"[7]; four out of the five TDP PDX models, three-week regimen, 2 mg/kg, one IV injection per week",> 80%
same,reduction in tumor volume after three weeks of treatment,"[7]; three non-TDP PDX models, 2 mg/kg IV weekly",none of the three non-TDP models analyzed exhibited a reduction in tumor volume
same,response compared to the vehicle arm,"[7]; three non-TDP PDX models, three-week regimen, 2 mg/kg IV weekly",only one out of the three models showed a significant response
same,IC50 Ln (μM),HCC1937 [8],4.92 Ln (μM)
same,IC50 Ln (μM),HCC38 [9],2.8 Ln (μM)
same,IC50 Ln (μM),DU4475,2.04 Ln (μM)
same,IC50 Ln (μM),HCC1143,3.3 Ln (μM)
same,IC50 Ln (μM),HCC1187 [10],2.15 Ln (μM)
same,IC50 Ln (μM),HCC1395 [11],2.4 Ln (μM)
same,IC50 Ln (μM),HCC1395 [12],4.96 Ln (μM)
same,IC50 Ln (μM),MB231 [13],5.57 Ln (μM)
CC(=O)O[C@@]12CO[C@@H]1C[C@H](O)[C@@]1(C)C(=O)[C@H](O)C3=C(C)[C@@H](OC(=O)[C@H](O)[C@@H](NC(=O)OC(C)(C)C)c4ccccc4)C[C@@](O)([C@@H](OC(=O)c4ccccc4)[C@H]21)C3(C)C [docetaxel],association of the TDP with sensitivity in PDX models,[7],not associated with sensitivity
COc1cc(N2CCC(N3CCN(C)CC3)CC2)ccc1Nc1ncc(Cl)c(Nc2ccccc2S(=O)(=O)C(C)C)n1 [NVP-TAE684],IC50 Ln (μM),HCC2218,5.37 Ln (μM)
same,IC50 Ln (μM),HCC1599 [1],2.98 Ln (μM)
same,IC50 Ln (μM),HCC1187 [2],0.62 Ln (μM)
same,IC50 Ln (μM),HCC2157,0.38 Ln (μM)
Nc1ccn([C@@H]2O[C@H](CO)[C@@H](O)[C@@H]2O)c(=O)n1 [Cytarabine],IC50 Ln (μM),HCC38 [3],0.63 Ln (μM)
same,IC50 Ln (μM),HCC2218,4.68 Ln (μM)
same,IC50 Ln (μM),MCF-7,0.69 Ln (μM)
same,IC50 Ln (μM),T47D,3.47 Ln (μM)
same,IC50 Ln (μM),HCC1954,3.41 Ln (μM)
same,IC50 Ln (μM),HCC1187 [2],3.36 Ln (μM)
same,IC50 Ln (μM),HCC1937 [8],3.32 Ln (μM)
same,IC50 Ln (μM),HCC1395 [12],1.1 Ln (μM)
same,IC50 Ln (μM),MB231 [13],2.18 Ln (μM)
COc1cccc2c1C(=O)c1c(O)c3c(c(O)c1C2=O)C[C@@](O)(C(=O)CO)C[C@@H]3O[C@H]1C[C@H](N)[C@H](O)[C@H](C)O1 [doxorubicin],association of the TDP with sensitivity in PDX models,[7],not associated with sensitivity
"O=C(c1cc(Cc2n[nH]c(=O)c3ccccc23)ccc1F)N1CCN(C(=O)C2CC2)CC1 [Olaparib, olaparib]",IC50 Ln (μM),Hs578T,4.61 Ln (μM)
same,IC50 Ln (μM),MB231 [4],3.49 Ln (μM)
same,IC50 Ln (μM),MB157,3.16 Ln (μM)
same,IC50 Ln (μM),HCC1806,2.40 Ln (μM)
same,IC50 Ln (μM),BT549,3.09 Ln (μM)
same,IC50 Ln (μM),MB436,3.77 Ln (μM)
same,IC50 Ln (μM),HCC70,4.19 Ln (μM)
same,IC50 Ln (μM),HCC1937 [6],4.51 Ln (μM)
same,IC50 Ln (μM),HCC38 [9],1.99 Ln (μM)
same,IC50 Ln (μM),HCC1143,4.57 Ln (μM)
same,IC50 Ln (μM),HCC1187 [10],3.57 Ln (μM)
same,IC50 Ln (μM),HCC1395 [11],4.28 Ln (μM)
